These results are taken from US20230071283A1, “COMPOSITIONS AND METHODS FOR SELECTIVE PROTEIN EXPRESSION” (Novartis AG, priority 2017, published 2023).

“Also recorded” adds a separate entry of the source.

Test [1] deals with T1, ERαFD furin degron domain fused to an anti-CD19 scFv CAR (Homo sapiens, UniProt P03372, G521R/L384M/M421G/N519S/T371A/Y537S).
T1 construct: signal peptide (CD8 leader) followed by Arg-Ser linker (N); furin cleavage site (C); anti-CD19 scFv CAR (CD8 hinge, 4-1BB, CD3zeta) (C); expressed in transfected cells; host or cells: Jurkat T cells, lentiviral transduction
T1 sequence (P03372 305-549 T371A/L384M/M421G/N519S/G521R/Y537S): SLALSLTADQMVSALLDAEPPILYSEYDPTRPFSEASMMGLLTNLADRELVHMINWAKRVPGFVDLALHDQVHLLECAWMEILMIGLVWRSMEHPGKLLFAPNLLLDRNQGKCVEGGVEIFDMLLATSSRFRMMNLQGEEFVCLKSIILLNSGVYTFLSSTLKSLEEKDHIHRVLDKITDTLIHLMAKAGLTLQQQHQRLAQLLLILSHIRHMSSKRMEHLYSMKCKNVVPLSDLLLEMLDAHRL
As to the kind of experiment: CAR expression by FACS in Jurkat T cells transduced with ERαFD furin degron-anti-CD19 scFv CAR. Particulars: 1 μM, 24 hours. The test is classed as cell-based. In general terms: In flow cytometry, cells or beads pass a laser one at a time.

For test [2], the system named is CD19 sCAR T cells. As to the kind of experiment: Elimination of CD19 sCAR T cells by AP20187 (live/dead-violet dye, flow cytometry). Particulars: 16 hours at 37° C. The test is classed as cell-based, human. How it is done: (§1) CAR T cells were incubated in the presence of the indicated concentrations of AP20187 for 16 hours at 37° C. Dead cells were detected with live/dead-violet dye and quantified by flow cytometry. Only T cells that expressed the inducible caspase were eliminated (FMC63 iC9 or CD19 sCAR, as well as iC9 control CAR).
(§2) Elimination of CD19 CAR T cells. CD19 sCAR T cells were incubated in the presence of the indicated concentrations AP20187 for 16 hours at 37° C. Dead cells were detected with live/dead-violet dye and quantified by flow cytometry.

The test system of test [3] is nontransduced T cells. As to the kind of experiment: AP20187 treatment of T cells not expressing inducible caspase-9. Format: cell-based, human. The conditions noted are these: 16 hours at 37° C. As for the experimental part:
as §1, §2

Test [4] has as its system NALM6, a CD19+ target cell line. As to the kind of experiment: Cytokine secretion in co-culture with target cells. The conditions noted are these: presence or absence of bazedoxifene; 20 hours; versus parental CAR19.
Test [5] relates to CD19+ NALM6 cells. As to the kind of experiment: Proliferation assay in co-culture with target cells (FACS, counting beads). The conditions noted are these: presence or absence of bazedoxifene; 4 days; versus parental CAR19.

On to `Oc1ccc2c(c1)CC[C@H](c1ccccc1)[C@@H]2c1ccc(OCCN2CCCC2)cc1` [Lasofoxifene], for which the “CAR 19 expression” value in test [1] is recorded as “can induce CAR 19 expression”.

For the molecule `CC[C@H](C(=O)N1CCCC[C@H]1C(=O)O[C@H](CCc1ccc(OC)c(OC)c1)c1cccc(OCC(=O)NCC(CNC(=O)COc2cccc([C@@H](CCc3ccc(OC)c(OC)c3)OC(=O)[C@@H]3CCCCN3C(=O)[C@@H](CC)c3cc(OC)c(OC)c(OC)c3)c2)CN(C)C)c1)c1cc(OC)c(OC)c(OC)c1` [AP20187], the “Cell death after AP20187” value in test [2] is “specifically killed; also recorded: specific and robust elimination of CD19 sCAR T cells”; in test [3], “no cell death”.

B1: construct #106: ERα furin degron (ERmut1) fused to anti-CD19 scFV CAR; furin site GTGAEDPRPSRKRRSLGDVG (SEQ ID NO: 125) (protein)
chain: RSSLALSLTADQMVSALLDAEPPILYSEYDPTRPFSEASMMGLLTNLADRELVHMINWAKRVPGFVDLALHDQVHLLECAWMEILMIGLVWRSMEHPGKLLFAPNLLLDRNQGKCVEGGVEIFDMLLATSSRFRMMNLQGEEFVCLKSIILLNSGVYTFLSSTLKSLEEKDHIHRVLDKITDTLIHLMAKAGLTLQQQHQRLAQLLLILSHIRHMSSKRMEHLYSMKCKNVVPLSDLLLEMLDAHRLGTGAEDPRPSRKRRSLGDVGEIVMTQSPATLSLSPGERATLSCRASQDISKYLNWYQQKPGQAPRLLIYHTSRLHSGIPARFSGSGSGTDYTLTISSLQPEDFAVYFCQQGNTLPYTFGQGTKLEIKGGGGSGGGGSGGGGSQVQLQESGPGLVKPSETLSLTCTVSGVSLPDYGVSWIRQPPGKGLEWIGVIWGSETTYYSSSLKSRVTISKDNSKNQVSLKLSSVTAADTAVYYCAKHYYYGGSYAMDYWGQGTLVTVSSTTTPAPRPPTPAPTIASQPLSLRPEACRPAAGGAVHTRGLDFACDIYIWAPLAGTCGVLLLSLVITLYCKRGRKKLLYIFKQPFMRPVQTTQEEDGCSCRFPEEEEGGCELRVKFSRSADAPAYKQGQNQLYNELNLGRREEYDVLDKRRGRDPEMGGKPRRKNPQEGLYNELQKDKMAEAYSEIGMKGERRRGKGHDGLYQGLSTATKDTYDALHMQALPPR
For B1, in test [4], the “levels of IFNγ” value is “secrete IFNγ in the presence of CD19+ tumor cells, in a manner that is stabilizing compound dose-dependent and is noninferior to the parental CAR construct”. Further, the Proliferation result in test [5] is “proliferate in the presence of CD19+ tumor cells, in a manner that is stabilizing compound-dependent and is noninferior to the parental CAR19 construct”.
